The results in this text go back to ChEMBL document CHEMBL3886657, “Imidazopyridin-2-one derivatives” (2016).

This test concerns the target Metabotropic glutamate receptor 2 (Homo sapiens, UniProt Q14416). Nature of the test: [35S]-GTPγS Assay: The stimulation of [35S]-GTPγS binding is a common functional assay to monitor Gαi-coupled receptor in native and recombinant receptor membrane preparation. Membrane from cells stably expressing hmGlu2 CHO-K1 (50 μg) are incubated in a 96 well plate for 1 hour in the presence of GTPγS35 (0.05 nM), GDP (5 μM) and compounds. The reaction is stopped by rapid filtration over Unifilter GF/B plate (Packard, Bioscience, Meriden Conn.) using a 96-well cell harvester (Brandel Gaithersburg, Md.). The filter plates are counted using Topcount counter (Packard, Bioscience, Meriden Conn., USA). When compounds are evaluated as potentiators they are tested in the presence of glutamate (1 μM). A general note: Binding of GTPγS marks nucleotide exchange on a G protein.

Metabotropic glutamate receptor 2, sequence (Q14416 whole entry): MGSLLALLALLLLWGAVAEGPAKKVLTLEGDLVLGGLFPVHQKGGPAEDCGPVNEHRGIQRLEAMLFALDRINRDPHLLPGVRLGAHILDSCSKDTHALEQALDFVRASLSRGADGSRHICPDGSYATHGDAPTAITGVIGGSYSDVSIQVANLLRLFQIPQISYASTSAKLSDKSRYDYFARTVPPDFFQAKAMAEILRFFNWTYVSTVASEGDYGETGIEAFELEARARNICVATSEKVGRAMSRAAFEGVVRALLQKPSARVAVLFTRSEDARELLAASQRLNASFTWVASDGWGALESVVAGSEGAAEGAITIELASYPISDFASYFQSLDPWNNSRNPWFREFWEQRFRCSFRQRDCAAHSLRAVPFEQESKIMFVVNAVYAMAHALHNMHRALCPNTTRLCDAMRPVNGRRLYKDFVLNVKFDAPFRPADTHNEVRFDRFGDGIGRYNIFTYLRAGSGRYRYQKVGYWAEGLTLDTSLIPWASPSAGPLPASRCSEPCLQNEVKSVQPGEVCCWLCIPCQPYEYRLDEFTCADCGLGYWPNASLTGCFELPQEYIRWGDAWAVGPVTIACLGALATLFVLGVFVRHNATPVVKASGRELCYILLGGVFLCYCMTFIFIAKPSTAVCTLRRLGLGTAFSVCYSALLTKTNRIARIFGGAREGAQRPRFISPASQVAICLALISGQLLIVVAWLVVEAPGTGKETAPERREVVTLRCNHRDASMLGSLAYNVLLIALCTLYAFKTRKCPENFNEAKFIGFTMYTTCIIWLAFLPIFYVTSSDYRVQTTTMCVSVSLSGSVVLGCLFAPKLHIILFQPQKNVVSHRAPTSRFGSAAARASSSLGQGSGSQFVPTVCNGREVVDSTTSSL

The EC50 is the concentration needed to bring the measured effect to its halfway point. Turning to `Cn1c(=O)n(CC(C)(C)C)c2ccc(C3=CC4CCC3CN4C(=O)C3CC3)nc21` (configuration not stated), the concentration for a half-maximal effect (EC50) is 215 nM.

For `Cn1c(=O)n(CC(C)(C)C)c2ccc(C3=CC4CCC3CN4C(=O)c3ncco3)nc21` (configuration not stated), the concentration giving a half-maximal response (EC50) was found to be 17.9 nM. Turning to `Cn1c(=O)n(CC2CC2(F)F)c2ccc(C3=CC4CCC3CN4C(=O)c3ccon3)nc21` (configuration not stated), the EC50 is 26.6 nM. For `CC1C(c2ccc3c(n2)N(C)S(=O)(=O)N3CC2CC2(F)F)C1C(C)(C)O` (configuration not stated), the EC50 turned out to be 40.6 nM. Next, `Cn1c(=O)n(CC(C)(C)C)c2ccc(C3=CC4CCC3CN4C(=O)c3csnn3)nc21` (configuration not stated): 69.3 nM. `Cn1c(=O)n(CC(C)(C)C)c2ccc(C3=CC4CN(C(=O)CO)CC4C3)nc21` (configuration not stated): the concentration giving a half-maximal response (EC50) is 2820 nM.

Consider `Cn1c(=O)n(CC2CC2(F)F)c2ccc(C3=CC4CN(C(=O)c5ncco5)CC4C3)nc21` (configuration not stated), for which the concentration giving a half-maximal response (EC50) came to 248 nM. Turning to `Cn1c(=O)n(CC(C)(C)C)c2ccc(C3=CC4CN(C(=O)c5ncco5)CC4C3)nc21` (configuration not stated), the concentration giving a half-maximal response (EC50) worked out at 54.7 nM. Next, `Cn1c(=O)n(CC(C)(C)C)c2ccc(C3=CC4CCC3CN4C(=O)Cn3cncn3)nc21` (configuration not stated): 115 nM; `CN1c2nc(C3=CC4CN(C(=O)C(C)(C)O)CC4C3)ccc2N(CC2CC2(F)F)S1(=O)=O` (configuration not stated): 88.6 nM; `Cn1c(=O)n(CC(C)(C)C)c2ccc(C3=CC4CN(C(=O)C5(O)CCC5)CC4C3)nc21` (configuration not stated): 51.4 nM.

Regarding `Cn1c(=O)n(CC(C)(C)C)c2ccc(C3=CC4CCC3CN4C(=O)c3cccnc3)nc21` (configuration not stated), the EC50 was 299 nM.
